From patent publication US7901893B2, “NPC1L1 (NPC3) and methods of identifying ligands thereof” (Merck Sharp & Dohme Corp., priority 2004, dated 2011)
“Also recorded” adds a separate entry of the source.

How the values were obtained:
rat NPC1L1 = rat NPC1L1 (Rattus norvegicus, UniProt Q6T3U3); experiment: Binding to membranes of HEK-293 cells expressing recombinant rat NPC1L1; design: expressed in transfected cells; host or cells: HEK-293 cells (ATCC), transient, pCR3.1; membranes; conditions: 0.03% sodium taurocholate and 0.05% digitonin; 1.25 mg protein/ml, 100 nM 1
Method: (§1) Transient expression of NPC1L1. Plasmid pCR3.1 expressing rat NPC1L1 (Genbank AY437867) or human NPC1L1 (Genbank AY437865) were prepared using standard molecular biology protocols. HEK-293 cells (ATCC) were seeded at 10×10^6 cells per T-225 flask (Corning) in DMEM containing 10% fetal calf serum, 4.5 g/L D-glucose and L-glutamine, 18 hours prior to transfection. They were transiently transfected with 25 μg of DNA using Fugene transfection reagent (Roche Biochemical) at a ratio of 6:1 Fugene:DNA. Following transfection, the cells were incubated at 37° C. and 5% CO2 for 48 hours, and then harvested using PBS based cell dissociation buffer (Gibco), pelleted at 500×g, snap frozen on dry ice, and stored at −80° C.
(§2) Membrane preparation from HEK-293 cells. Membranes were prepared by resuspending the frozen cell pellets in ten volumes of 20 mM HEPES/Tris buffer at pH 7.40 containing 8% sucrose, and sonicating the suspensions with a probe sonicator on ice until most of the cells were lysed. To isolate the membranes, the sonicates were centrifuged at 1600×g for 10 min to remove cell debris, and then the supernatants were centrifuged at 125,000×g for 1 hour to recover the membranes. These membranes were resuspended in 20 mM HEPES/Tris buffer at pH 7.40 containing 160 mM NaCl and 5% glycerol, and stored at 10-20 mg/ml protein at −80° C.
(§3) Analog structures are defined in Table 12.

human NPC1L1 [1] = target: T1, human NPC1L1 (Homo sapiens, UniProt Q9UHC9, G1187D/M616T/T1073A); experiment: Binding to membranes of HEK-293 cells expressing recombinant human NPC1L1; design: expressed in transfected cells; host or cells: HEK-293 cells (ATCC), transient, pCR3.1; membranes; conditions: 0.03% sodium taurocholate and 0.05% digitonin; 1.25 mg protein/ml, 100 nM 1
T1 sequence (Q9UHC9 22-1332 isoform Q9UHC9-2 M616T/T1046A/G1160D limits assumed): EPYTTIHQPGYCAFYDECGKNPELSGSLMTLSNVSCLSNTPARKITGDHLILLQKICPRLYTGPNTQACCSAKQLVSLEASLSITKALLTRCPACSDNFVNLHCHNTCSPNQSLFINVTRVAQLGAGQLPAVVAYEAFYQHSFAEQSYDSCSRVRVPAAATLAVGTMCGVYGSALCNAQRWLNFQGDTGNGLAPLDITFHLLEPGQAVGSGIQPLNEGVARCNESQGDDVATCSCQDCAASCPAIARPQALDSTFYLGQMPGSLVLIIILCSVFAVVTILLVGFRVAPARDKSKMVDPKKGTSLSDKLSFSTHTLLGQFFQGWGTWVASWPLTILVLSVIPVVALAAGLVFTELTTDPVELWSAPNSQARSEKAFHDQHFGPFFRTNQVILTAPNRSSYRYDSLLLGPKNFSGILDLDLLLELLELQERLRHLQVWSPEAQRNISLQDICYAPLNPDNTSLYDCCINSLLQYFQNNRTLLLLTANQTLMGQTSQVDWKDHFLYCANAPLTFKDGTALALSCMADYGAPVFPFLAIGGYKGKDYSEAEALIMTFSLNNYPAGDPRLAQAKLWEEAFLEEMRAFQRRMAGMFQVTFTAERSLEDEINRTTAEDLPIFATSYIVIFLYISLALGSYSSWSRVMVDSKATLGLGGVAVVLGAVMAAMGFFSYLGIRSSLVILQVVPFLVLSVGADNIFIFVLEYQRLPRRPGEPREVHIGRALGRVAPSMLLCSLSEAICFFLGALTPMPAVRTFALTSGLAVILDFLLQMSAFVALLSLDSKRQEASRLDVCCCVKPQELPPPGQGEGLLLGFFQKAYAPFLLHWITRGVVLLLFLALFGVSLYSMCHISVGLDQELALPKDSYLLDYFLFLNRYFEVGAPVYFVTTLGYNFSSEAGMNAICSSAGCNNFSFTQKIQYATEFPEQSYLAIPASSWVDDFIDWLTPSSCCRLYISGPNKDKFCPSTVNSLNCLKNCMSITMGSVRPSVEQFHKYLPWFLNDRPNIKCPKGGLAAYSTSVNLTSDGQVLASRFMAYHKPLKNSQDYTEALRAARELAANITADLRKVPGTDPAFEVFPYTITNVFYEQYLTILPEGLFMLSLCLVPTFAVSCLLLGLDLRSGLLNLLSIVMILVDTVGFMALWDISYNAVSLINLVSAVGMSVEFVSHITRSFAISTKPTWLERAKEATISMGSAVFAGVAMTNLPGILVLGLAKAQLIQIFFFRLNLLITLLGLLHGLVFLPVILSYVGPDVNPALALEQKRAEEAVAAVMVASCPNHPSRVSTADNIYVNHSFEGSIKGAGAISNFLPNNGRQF
Method: as §1, §2, §3

[2] = test system: brush border membranes from NPC1L1 knockout (−/−) mice; experiment: Binding assay with brush border membranes from NPC1L1 deficient mice; design: species or system mouse
Method: Brush border membranes vesicles were prepared from intestinal tissues of wild type and NPC1L1 knockout (−/−) mice. 15, 30 and 60 μg protein/assay of brush border membranes vesicles were incubated with 4 nM ^35S-2 in buffer A for 3 hours at 37° C. in the presence and absence of 100 μM EZE-glucuronide.
For FIG. 14A, enterocyte brush border membranes were prepared from NPC1L1 deficient male mice and same sex wild-type littermates, and tested for binding of 1. […] Membranes from wild type mice are on the left and from NPC1L1 deficient mice on the right.

human NPC1L1 [3] = target: T1, human NPC1L1; experiment: ^35S-2 competition binding, human NPC1L1 transfected CHO cells; design: expressed in transfected cells; host or cells: CHO cells (pCDNA3, XbaI/NotI fragment); conditions: for Kd: 5 nM ^35S-2, 2 hours at 37° C., read-out: affinity (Kd) for human recombinant NPC1L1
Method: Human NPC1L1 transfected CHO cells (˜600,000 cells/assay) were incubated with 5 nM ^35S-2 (˜1 million dpm/assay) in buffer A for 2 hours at 37° C. in the absence or presence of increasing concentrations of EZE-glucuronide (compound 1), compounds 2, 3, 5, 6, or 8.

Row | Structure (SMILES) | Ki (rat NPC1L1) | Ki (human NPC1L1 [1]) | specific binding to membranes from NPC1L1 deficient mice ([2]; 500 nM 1, 0.03% taurocholate, 0.05% digitonin) | Kd (human NPC1L1 [3]) | binding to membranes from NPC1L1 deficient mice ([2]; 4 nM ^35S-2) | potency relative to ezetimibe glucuronide (1) (human NPC1L1 [3]; human recombinant NPC1L1)
1 | O=C(O)C1OC(Oc2ccc(C3C(CCC(O)c4ccc(F)cc4)C(=O)N3c3ccc(F)cc3)cc2)C(O)C(O)C1O (single isomer, unassigned) [Compound 4] | 74000 nM | 130000 nM |  |  |  | 
2 | O=C(O)[C@H]1O[C@@H](Oc2ccc([C@@H]3[C@@H](CC[C@H](O)c4ccc(F)cc4)C(=O)N3c3ccc(F)cc3)cc2)[C@H](O)[C@@H](O)[C@@H]1O [Compound 1, Ezetimibe glucuronide] | 210 nM | 220 nM | no detectable specific binding affinity; also recorded: virtually undetectable | 907 nM |  | 
3 | CS(=O)(=O)NCC#Cc1ccc(N2C(=O)[C@H](CC[C@H](O)c3ccc(F)cc3)[C@H]2c2ccc(O[C@@H]3O[C@H](C(=O)O)[C@@H](O)[C@H](O)[C@H]3O)cc2)cc1 [Compound 2, 4-[(2S,3R)-3-[(3S)-3 (4-fluorophenyl)-3-hydroxypropyl]-1-(4-{3-[(methylsulfonyl)amino]prop-1-yn-1-yl}phenyl)-4-oxoazetidin-2-yl]phenyl β-D-glucopyranosiduronic acid] |  |  |  | 21 nM | no detectable binding | approximately 50 fold
4 | O=C(CC[C@H]1C(=O)N(c2ccc(F)cc2)[C@@H]1c1ccc(O[C@@H]2O[C@H](C(=O)O)[C@@H](O)[C@H](O)[C@H]2O)cc1)c1ccc(F)cc1 [Compound 6] | 23000 nM | 14000 nM |  |  |  | 
5 | O=C(O)[C@H]1O[C@@H](Oc2ccc([C@@H]3[C@@H](CCCc4ccc(F)cc4)C(=O)N3c3ccc(F)cc3)cc2)[C@H](O)[C@@H](O)[C@@H]1O [Compound 3] | 820 nM | 1000 nM |  |  |  | 
6 | O=C(O)[C@H]1O[C@@H](Oc2ccc([C@@H]3[C@@H](CC[C@@H](O)c4ccc(F)cc4)C(=O)N3c3ccc(F)cc3)cc2)[C@H](O)[C@@H](O)[C@@H]1O [Compound 5] | 1700 nM | 1300 nM |  |  |  | 
